Results on one compound are retold here after article PMC11134387, “Cancer-Stem-Cell Phenotype-Guided Discovery of a Microbiota-Inspired Synthetic Compound Targeting NPM1 for Leukemia” (JACS Au, 2024).

For orientation: pIC50 means the negative decadic logarithm of the IC50, by convention in mol/L. For orientation: inhibition means the share of the control response that was lost under treatment.

Data set [1] in a line: Plasma protein binding, equilibrium dialysis (RED). Type of data set: in vitro ADME. Conditions: pH 7.4, mouse serum, read-out: Plasma protein binding, bound fraction (converted). As for the experimental part:
Based on the encouraging results obtained in ex vivo models of AML, we further assessed the therapeutic potential of the new NPM1 inhibitor in vivo. Prior to the evaluation of the compound in an animal model of AML, in vivo pharmacokinetic studies were addressed. Following a single intraperitoneal administration of UCM-13369 at a dose of 25 mg/kg, levels of 200–600 μg/L were detected in mouse peripheral blood up to 6 h (Figure 6A). Plasma protein binding of the compound in mouse serum was measured using an equilibrium dialysis assay, indicating a bound fraction of 83 ± 1%. Next, the efficacy of the compound was evaluated in immunodeficient mice after injection of OCI-AML3-ffLuc-GFP cells as an AML animal model. […]
coupled to a liquid nanochromatography Easy nLC 1200 System (Thermo Scientific).
Once digested, mutant NPM1 C+ C-end sample w as injected into a EASY-Spray™ C18 column, and digestion peptides were separated by using a lineal phase gradi ent (A: 0.1% formic acid in water; B: 20% acetonitrile, 0.1% formic acid in water) for 120 min. Spectra were acquired in DDA m ode, analyzing the 10 higher intensity parent ions in each cycl e.
Proteome Discoverer (Thermo Scientific) was used to align the spectra with the C-end […]
Random exclusion of AIRs was set to 2%. […] Clusters were classifi ed according to H ADDOCK score and stru ctures w er e analyzed with UCSF ChimeraX).10 […]
(In equilibrium dialysis only unbound substance equilibrates across the membrane.)

The test system of data set [2] is primary CD34+ cells from AML patients. Description: CFU-E colony-forming unit assay, AML patients. Conditions: Homo sapiens. Type of data set: cell-based. As for the experimental part:
Considering the inhibitory capacity of UCM-13369 on AML cell lines (shown in Figure 3A), the therapeutic potential was assessed in primary CD34+ cells from AML patients. Two ex vivo models were used from AML patients and healthy donors: CD34+ liquid HSC (hematopoietic stem cell) culture as a short-term model and CFU-E (colony-forming unit–erythroid) as a midterm model.
The test compound was diluted in PBS. […]
Primary cells. 1x10^6/mL total mononuclear bone marrow cells (as source of CD34+ HSCs) of healthy donors and AML patients were used. They were cultured using Stem SpanTM supplement with pencillin/streptomycin (500 U/ml), TPO (10 µg/mL), SCF (10 µg/mL), FLT3 (10 µg/mL), IL-6 (10 µg/mL) and IL-3 (10 µg/mL). After 24 h fresh medium was added. After 72 h in maintenance cells were ready to start the assays. All cells wer e maintained at 37 °C in a humidified incubator in an atmosphere of 5% CO2.
(§1) Colonospheres, mamospheres and colony formation unit assays. 30.000 cells per well of MCF-7 cells (mamos pheres), HCT-116 cells (colonospheres) and CD34+ cells from patients (colony formation units) were seeded in serum free non- adherent medium or […]
(§2) MethoCult (Stem Cell). […]

Data set [3] deals with MCF-7-derived mamospheres. Nature of the data set: Formation of MCF-7-derived mamospheres (CSC tumorspheres). Type of data set: cell-based. As for the experimental part: (BD Biosciences, Franklin Lakes, NJ, USA). All cells were maintained at 37 °C in a humidified incubator in an atmosphere of 5% CO2, and passaged every 2–3 days.
Additionally, they were cultured using RPMI media (Gibco/Life Technologies; Grand […]
as §1, §2

pIC50: −log10 of the molar value.

`COc1ccc(C2Cc3[nH]c4ccccc4c3C(CCNCC3CC3)C2N)cc1` (stereo not shown) [4b, 4-{2-[(Cyclopropylmethyl)amino]ethyl}-2-(4-methoxyphenyl)-2,3,4,9-tetrahydro-1H-carbazol-3-amine]: the fraction unbound at 6 h in data set [1] is 0.17. This compound showed a negative logarithm of the IC50 (pIC50) in data set [2] of 6.52. Also, in data set [3] (Homo sapiens, MCF7, @5 µM (footnote d), read-out: Inhibition of tumorsphere formation (%) MCF-7), the inhibition at 5 µM was found to be 100%. For the same compound, the “Formation of tumorspheres (in words)” value in data set [3] (MCF-7 mamospheres and HCT-116 colonospheres, noncytotoxic concentration) is given as “completely inhibit”.
